Data as given in ChEMBL document CHEMBL1201862, “PubChem BioAssay data set” (2004).
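Five compound concentrations were applied to cells in 96-well plates for 48 hours; endpoints were derived by simple linear interpolation of the resulting dose-response curve. GI50 = concentration required for 50% inhibition of growth.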 Calls of active or inactive are those of the source. No stated cut-off is given here; in the data, active = GI50 up to about 1.1 µM and inactive = higher.

Columns and labels:
Test in all cases: NCI tumour cell line growth inhibition, 48 h
[1] = test system: SNB-19
[2] = test system: Hs-578T
[3] = test system: Malme-3M
[4] = test system: KM12
[5] = test system: NCI-H226
[6] = test system: A498
[7] = test system: TK-10
[8] = test system: A549
[9] = test system: RXF 393
[10] = test system: IGROV-1
[11] = test system: NCI-H23
[12] = test system: HL-60
[13] = test system: NCI/ADR-RES
[14] = test system: CCRF-CEM
[15] = test system: MDA-MB-231
[16] = test system: NCI-H460
[17] = test system: SN12C
[18] = test system: HT-29
[19] = test system: OVCAR-5
[20] = test system: 786-0
[21] = test system: SK-MEL-5
[22] = test system: UACC-257
[23] = test system: SR
[24] = test system: RPMI-8226
[25] = test system: PC-3
[26] = test system: T47D
[27] = test system: K562
[28] = test system: SF-268
[29] = test system: SK-MEL-2
[30] = test system: COLO 205
[31] = test system: SF-295
[32] = test system: HCT-116
[33] = test system: SNB-75
[34] = test system: OVCAR-4
[35] = test system: SK-OV-3
[36] = test system: BT-549
[37] = test system: SF-539
[38] = test system: MDA-MB-435
[39] = test system: OVCAR-8
[40] = test system: UACC-62
[41] = test system: ACHN
[42] = test system: M14
[43] = test system: SK-MEL-28
[44] = test system: CAKI-1
[45] = test system: MDA-N
[46] = test system: DU-145
[47] = test system: U-251
[48] = test system: UO-31
[49] = test system: MOLT-4
[50] = test system: NCI-H522
[51] = test system: EKVX
[52] = test system: SW-620
[53] = test system: HCT-15
[54] = test system: HOP-62
[55] = test system: MCF7
[56] = test system: OVCAR-3
[57] = test system: LOX IMVI
[58] = test system: HCC 2998
[59] = test system: HOP-92

Measured: GI50

N#Cc1c(-c2ccccc2)c(C=O)c(=O)n2c1[nH]c1ccccc12
70 µM: [53]
inactive: [1] 50.7 µM | [2] 31.3 µM | [3] > 100 µM | [4] 60.1 µM | [5] 55.6 µM | [6] 26.1 µM | [7] 77.3 µM | [8] > 100 µM | [9] 42.5 µM | [10] > 100 µM | [11] 61.7 µM | [12] 56.9 µM | [13] > 100 µM | [14] 17.6 µM | [15] 38.2 µM | [16] > 100 µM | [17] 45.3 µM | [18] 92 µM | [19] > 100 µM | [20] > 100 µM | [21] > 100 µM | [22] > 100 µM | [23] 67.6 µM | [24] 63.2 µM | [25] > 100 µM | [26] 65.9 µM | [27] 67 µM | [28] 65.9 µM | [29] 33 µM | [30] 53.1 µM | [31] > 100 µM | [32] 82.4 µM | [33] 22.1 µM | [34] 20.5 µM | [35] > 100 µM | [36] 39.1 µM | [37] 77.1 µM | [38] 67.1 µM | [39] > 100 µM | [40] 40.7 µM | [41] 78.3 µM | [42] 97.5 µM | [43] 23.9 µM | [44] > 100 µM | [45] 84.3 µM | [46] > 100 µM | [47] 50.8 µM | [48] 40.6 µM | [49] 33.7 µM | [50] 55.6 µM | [51] > 100 µM | [52] 42.6 µM

CCOC(=O)c1cc2c([N+](=O)[O-])c(N)ccc2s1
inactive: [1] > 100 µM | [2] > 100 µM | [3] > 100 µM | [4] > 100 µM | [54] > 100 µM | [5] > 100 µM | [6] > 100 µM | [7] > 100 µM | [8] > 100 µM | [9] > 100 µM | [10] > 100 µM | [11] > 100 µM | [12] > 100 µM | [13] > 100 µM | [55] > 100 µM | [14] > 100 µM | [15] > 100 µM | [16] > 100 µM | [17] > 100 µM | [18] > 100 µM | [19] > 100 µM | [20] > 100 µM | [21] > 100 µM | [22] > 100 µM | [24] > 100 µM | [56] > 100 µM | [57] > 100 µM | [25] > 100 µM | [26] > 100 µM | [27] > 100 µM | [28] > 100 µM | [29] > 100 µM | [30] > 100 µM | [31] > 100 µM | [32] > 100 µM | [33] 72.3 µM | [34] > 100 µM | [35] > 100 µM | [36] > 100 µM | [37] > 100 µM | [58] > 100 µM | [38] > 100 µM | [39] > 100 µM | [40] > 100 µM | [41] > 100 µM | [42] > 100 µM | [43] > 100 µM | [44] > 100 µM | [45] > 100 µM | [46] > 100 µM | [47] > 100 µM | [59] > 100 µM | [48] > 100 µM | [49] > 100 µM | [50] > 100 µM | [51] 57 µM | [52] > 100 µM
> 100 µM: [53]

C(=N\C12CC3CC(CC(C3)C1)C2)/C1CCCCC1
inactive: [1] > 100 µM | [2] > 100 µM | [3] > 100 µM | [4] > 100 µM | [54] > 100 µM | [5] > 100 µM | [6] > 100 µM | [7] > 100 µM | [8] > 100 µM | [9] > 100 µM | [10] > 100 µM | [11] > 100 µM | [12] > 100 µM | [13] > 100 µM | [55] > 100 µM | [14] > 100 µM | [15] > 100 µM | [16] > 100 µM | [17] > 100 µM | [18] > 100 µM | [19] > 100 µM | [20] > 100 µM | [21] > 100 µM | [22] > 100 µM | [23] > 100 µM | [24] > 100 µM | [56] > 100 µM | [25] > 100 µM | [27] > 100 µM | [28] > 100 µM | [29] > 100 µM | [30] > 100 µM | [31] > 100 µM | [32] > 100 µM | [33] > 100 µM | [34] > 100 µM | [36] > 100 µM | [37] > 100 µM | [58] > 100 µM | [38] > 100 µM | [39] > 100 µM | [40] > 100 µM | [41] > 100 µM | [42] > 100 µM | [44] > 100 µM | [45] > 100 µM | [46] > 100 µM | [47] > 100 µM | [59] > 100 µM | [48] > 100 µM | [49] > 100 µM | [50] > 100 µM | [51] > 100 µM | [52] > 100 µM
> 100 µM: [53]
